Assays:
[1] = system: HeLa cells (cervical cancer); assay: MTT antiproliferative assay, HeLa; type: cell-based, human; details: 72 h; for inhibition at 10 µM / inhibition at 30 µM: read-out: Growth inhibition (%) ± SEM
Description: (§1) The in vitro antiproliferative activities of the synthesized aminodiols 4–38 against a panel of different human cancer cell lines of gynecological origin, including cervical (SiHA and HeLa), breast (MCF7 and MDA-MB-231), and ovary (A2780) cancers were assayed by the MTT method. […] Cisplatin, a clinically applied anticancer agent, was used as a reference compound and the results are summarized in Figure 3 and Table S1 in Supporting Information. […] On the other hand, none of the prepared azole derivatives exerted relevant activity.
(§2) The growth-inhibitory effects of the gibberellic acid-based aminodiol derivatives were determined by a standard MTT (3-(4,5-dimethylthiazol-2-yl)-2,5-diphenyltetrazolium bromide) assay on a panel containing five cell lines, including Hela and Siha (cervical cancers); MDA-MB-231 and MCF-7 (breast cancers); and A2780 ovarian cancer cells. The most promising agents were additionally tested against NIH/3T3 mouse embryo fibroblast cells. All cell lines were purchased from the European Collection of Cell Cultures (Salisbury, UK) except SiHa, which was obtained from the American Tissue Culture Collection (Manassas, VA, USA). The cells were maintained in minimal essential medium supplemented with 10% fetal bovine serum, 1% non-essential amino acids, and 1% penicillin-streptomycin at 37 °C in a humidified atmosphere containing 5% CO2. All media and supplements were obtained from Lonza Group Ltd., (Basel, Switzerland). Cancer cells were seeded into 96-well plates (5000 cells/well), after an overnight incubation the test compound was added in 2 different concentrations (10 µM and 30 µM) and incubated for another 72 h under cell-culturing conditions. Then, 20 μL of 5 mg/mL MTT solution was added to each well and incubated for a further 4 h. The medium was removed, and the precipitated formazan crystals were dissolved in DMSO during 60 min of shaking at 37 °C. As the final step, the absorbance was measured at 545 nm by using a microplate reader (SPECTROStar Nano, BMG Labtech, Offenburg, Germany). Untreated cells were included as controls. […] These agents were additionally tested against NIH/3T3 fibroblasts to obtain results about their cancer selectivity. Two independent experiments were performed with five wells for each condition. Cisplatin (Ebewe GmbH, Unterach, Austria), a clinically used anticancer agent, was used as a positive control. Calculations were performed utilizing the GraphPad Prism 5.01 software (GraphPad Software Inc., San Diego, CA, USA).

[2] = system: SiHa cells (cervical cancer); assay: MTT antiproliferative assay, SiHa; type: cell-based, human; details: 72 h; for inhibition at 10 µM / inhibition at 30 µM: read-out: Growth inhibition (%) ± SEM
Description: as §1, §2

[3] = system: MDA-MB-231 cells (breast cancer); assay: MTT antiproliferative assay, MDA-MB-231; type: cell-based, human; details: for Growth inhibition (%) ± SEM / inhibition at 10 µM / inhibition at 30 µM: 72 h; for IC50: MDA-MB-231, 72 h; for inhibition at 10 µM / inhibition at 30 µM: read-out: Growth inhibition (%) ± SEM
Description: as §1, §2

[4] = system: A2780 ovarian cancer cells; assay: MTT antiproliferative assay, A2780; type: cell-based, human; details: for Growth inhibition (%) ± SEM / inhibition at 10 µM / inhibition at 30 µM: 72 h; for IC50: A2780, 72 h; for inhibition at 10 µM / inhibition at 30 µM: read-out: Growth inhibition (%) ± SEM
Description: as §1, §2

[5] = system: NIH/3T3 mouse embryo fibroblast cells; assay: MTT assay on non-cancerous fibroblasts (cancer selectivity); type: cell-based; details: for Growth inhibition (%) ± SEM / inhibition at 10 µM / inhibition at 30 µM: 72 h; for IC50: NIH/3T3, 72 h; for cancer selectivity (cancer cells vs NIH/3T3 fibroblasts), words: comparison of IC50 on fibroblasts and malignant cell lines; for inhibition at 10 µM / inhibition at 30 µM: read-out: Growth inhibition (%) ± SEM
Description: as §1, §2

[6] = DPPH free radical scavenging assay; details: concentration range 3–100 µM
Description: As a consequence, in vitro antioxidant activities of selected N-aliphatic- and N-aryl-substituted aminodiols were determined by 1,1-diphenyl-2-picrylhydrazyl (DPPH) assay.
The antioxidant effects of the aminodiol derivatives were tested on 1,1-diphenyl-2-picrylhydrazyl (DPPH) radicals according to Brand-Williams (1995) [55] and Sánchez-Moreno (2002) [56], with some modifications. […] After a 30 min incubation period at room temperature (25 °C) the absorbances were measured at 517 nm by a microplate reader (SPECTROStar Nano, BMG Labtech, Offenburg, Germany). Trolox (3,4-Dihydro-6-hydroxy-2,5,7,8-tetramethyl-2H-1-benzopyran-2-carboxylic acid) was used as a positive control. All measurements were performed in duplicate with 5 parallels.

[7] = system: panel of human cancer cell lines; assay: MTT antiproliferative assay, panel of human cancer cell lines (summary statements); type: cell-based; details: range over the cancer cell lines, read-out: calculated IC50 value on the malignant cell lines
Description: as §1
The growth-inhibitory effects of the gibberellic acid-based aminodiol derivatives were determined by a standard MTT (3-(4,5-dimethylthiazol-2-yl)-2,5-diphenyltetrazolium bromide) assay on a panel containing five cell lines, including Hela and Siha (cervical cancers); MDA-MB-231 and MCF-7 (breast cancers); and A2780 ovarian cancer cells. The most promising agents were additionally tested against NIH/3T3 mouse embryo fibroblast cells. All cell lines were purchased from the European Collection of Cell Cultures (Salisbury, UK) except SiHa, which was obtained from the American Tissue Culture Collection (Manassas, VA, USA). […] As the final step, the absorbance was measured at 545 nm by using a microplate reader (SPECTROStar Nano, BMG Labtech, Offenburg, Germany). […]

[8] = Homo sapiens, MDA-MB-231, 10 μM
[9] = Homo sapiens, MDA-MB-231, 30 μM
[10] = Mus musculus, NIH3T3, NIH/3T3, 10 μM
[11] = Mus musculus, NIH3T3, NIH/3T3, 30 μM

Row | IC50 ([1]; Homo sapiens) [µM] | IC50 ([2]; Homo sapiens) [µM] | IC50 ([3]; Homo sapiens) [µM] | IC50 ([4]; Homo sapiens) [µM] | melting point [°C] | SMILES | cancer selectivity (cancer cells vs NIH/3T3 fibroblasts), words [5] | DPPH scavenging activity [6] | inhibition at 10 µM ([1]; Homo sapiens, 10 μM) [%] | inhibition at 30 µM ([1]; Homo sapiens, 30 μM) [%] | inhibition at 10 µM ([2]; Homo sapiens, 10 μM) [%] | inhibition at 30 µM ([2]; Homo sapiens, 30 μM) [%] | inhibition at 10 µM [3, 8] [%] | inhibition at 30 µM [3, 9] [%] | inhibition at 10 µM ([4]; Homo sapiens, A2780, 10 μM) [%] | inhibition at 30 µM ([4]; Homo sapiens, A2780, 30 μM) [%] | inhibition at 10 µM [5, 10] [%] | inhibition at 30 µM [5, 11] [%] | IC50 ([5]; Mus musculus, NIH3T3) [µM] | other results
1 | – | – | – | – | – | CCOC(=O)[C@H]1c2c(C)cccc2[C@H]2CC[C@]3(O)C[C@@]21C[C@]3(O)CN[C@@H](C)c1ccc2ccccc2c1 [Compound 12] | inhibited the growth of cancer cells and fibroblasts in the same concentration range | None of the six molecules elicited considerable activity | – | – | – | – | – | – | – | – | – | – | – | Growth inhibition (%) ± SEM ([1]; 10 μM): 97.69 ± 0.28%; Growth inhibition (%) ± SEM ([1]; 30 μM): 97.62 ± 0.55%; IC50 [1]: 4.14 ± 0.38 µM; Growth inhibition (%) ± SEM ([2]; 10 μM): 97.41 ± 0.15%; Growth inhibition (%) ± SEM ([2]; 30 μM): 97.06 ± 0.20%; IC50 [2]: 4.17 ± 0.32 µM; Growth inhibition (%) ± SEM ([3]; MDA-MB-231, 10 μM): 95.00 ± 0.69%; Growth inhibition (%) ± SEM ([3]; MDA-MB-231, 30 μM): 93.72 ± 0.88%; IC50 [3]: 7.19 ± 1.48 µM; Growth inhibition (%) ± SEM ([4]; A2780, 10 μM): 96.29 ± 0.59%; Growth inhibition (%) ± SEM ([4]; A2780, 30 μM): 96.28 ± 0.82%; IC50 [4]: 5.45 ± 0.31 µM; Growth inhibition (%) ± SEM ([5]; NIH/3T3, 10 μM): 90.43 ± 0.15%; Growth inhibition (%) ± SEM ([5]; NIH/3T3, 30 μM): 91.03 ± 0.05%; IC50 [5]: 4.57 ± 0.23 µM
2 | 4.38 ± 0.08 | 4.69 ± 0.17 | 7.49 ± 1.26 | 5.3 ± 0.41 | – | CCOC(=O)[C@H]1c2c(C)cccc2[C@H]2CC[C@]3(O)C[C@@]21C[C@]3(O)CN[C@@H](C)c1cccc2ccccc12 [Compound 13, Ethyl (4bS,7S,8S,9aR,10R)-7,8-dihydroxy-1-methyl-8-((((S)-1-(naphthalen-1-yl)ethyl)amino)methyl)-4b,6,7,8,9,10-hexahydro-5H-7,9a-methanobenzo[a]azulene-10-carboxylate] | modest cancer selectivity | None of the six molecules elicited considerable activity | 97.16 ± 0.49 | 96.87 ± 0.47 | 96.05 ± 0.46 | 96.74 ± 0.27 | 94.86 ± 0.83 | 96 ± 0.92 | 91.2 ± 1.96 | 96.7 ± 1.17 | 40.5 ± 0.86 | 88.1 ± 0.16 | 10.9 | IC50 [7]: 4.38 to 7.49 µM
3 | 4.66 ± 0.21 | 5.25 ± 0.86 | 8.04 ± 0.61 | 5.15 ± 0.28 | – | CCOC(=O)[C@H]1c2c(C)cccc2C2CC[C@]3(O)C[C@@]21C[C@]3(O)CN[C@H](C)c1cccc2ccccc12 (stereo partly drawn) [Compound 14, Ethyl (7S,8S,9aR,10R)-7,8-dihydroxy-1-methyl-8-((((R)-1-(naphthalen-1-yl)ethyl)amino)methyl)-4b,6,7,8,9,10-hexahydro-5H-7,9a-methanobenzo[a]azulene-10-carboxylate] | inhibited the growth of cancer cells and fibroblasts in the same concentration range | None of the six molecules elicited considerable activity | 98.08 ± 0.19 | 97.4 ± 0.34 | 96.3 ± 2.13 | 97.84 ± 0.42 | 96.57 ± 0.37 | 96.77 ± 0.16 | 96.53 ± 0.73 | 95.9 ± 1.06 | 88.6 ± 0.97 | 88.7 ± 0.98 | 5.02 ± 0.26 | –
4 | – | – | – | – | 94 to 95 | CCOC(=O)[C@H]1c2c(C)cccc2[C@H]2CC[C@]3(O)C[C@@]21C[C@]3(O)CN(C)Cc1ccccc1 [Compound 16, Ethyl (4bS,7S,8S,9aR,10R)-8-((benzyl(methyl)amino)methyl)-7,8-dihydroxy-1-methyl-4b,6,7,8,9,10-hexahydro-5H-7,9a-methanobenzo[a]azulene-10-carboxylate] | – | None of the six molecules elicited considerable activity | < 20 | 36 ± 2.89 | < 20 | 23 ± 0.39 | < 20 | 25 ± 0.99 | < 20 | 21.6 ± 0.85 | – | – | – | –
5 | – | – | – | – | 92 to 94 | CCOC(=O)[C@H]1c2c(C)cccc2[C@H]2CC[C@]3(O)C[C@@]21C[C@]3(O)CN [Compound 25, Ethyl (4bS,7S,8S,9aR,10R)-8-(aminomethyl)-7,8-dihydroxy-1-methyl-4b,6,7,8,9,10-hexahydro-5H-7,9a-methanobenzo[a]azulene-10-carboxylate] | – | None of the six molecules elicited considerable activity | < 20 | < 20 | < 20 | < 20 | < 20 | < 20 | < 20 | < 20 | – | – | – | –
